What was measured:
Experiment in all cases: Preventative activity (anti-germination), seeds on agar in Petri dish
Type in all cases: in vivo
Settings in all cases: 0.35 g sprayed (benzyl alcohol pure, 700 L/Ha; glyphosate diluted at 0.5%)
Dandelion seeds = system: Dandelion seeds
Soybean seeds = system: Soybean seeds
Method: (§1) The assays were carried out on seeds sown on a Petri dish with respectively a control mode, an assay with benzyl alcohol and an assay with glyphosate herbicide (Gallup® super 360, Barclay).
(§2) The application of the product is carried out with a trigger spray bottle which makes it possible to spray 0.35 g of product per spraying, as microdroplets.
(§3) Seeds are placed on an agar gel in Petri dishes. 16 barley seeds, 24 rapeseed seeds, 18 wheat seeds, 10 maize seeds, 10 soybean seeds are positioned for each test.
(§4) The seeds are sprinkled either with 0.35 g water (equivalent 700 L/Ha) including 0.35 g pure benzyl alcohol (PanReac AppliChem—ITW Reagents) (equivalent 700 L/Ha pure benzyl alcohol), or with 0.35 g water for the control, or with 0.35 g glyphosate diluted at 0.5% for the glyphosate test.
(§5) The plants are observed at 0 and 11 days. The percentage of germination is the percentage of germinated seeds evaluated after 11 days.

Wheat seeds = system: Wheat seeds
Method: as §1, §2, §3, §4, §5

Barley seeds = system: Barley seeds
Method: as §1, §2, §3, §4, §5

Maize seeds = system: Maize seeds
Method: as §1, §2, §3, §4, §5

Rapeseed seeds = system: Rapeseed seeds
Method: as §1, §2, §3, §4, §5

O=C(O)CNCP(=O)(O)O [Glyphosate, glyphosate, reference compound]
Percentage of germination at 11 days (Dandelion seeds): 83%
Percentage of germination at 11 days (Soybean seeds): 100%
Percentage of germination at 11 days (Wheat seeds): 100%
Percentage of germination at 11 days (Barley seeds): 100%
Percentage of germination at 11 days (Maize seeds): 100%
Percentage of germination at 11 days (Rapeseed seeds): 100%
